Literature values in US10987305B2, “Preparation of respirable zafirlukast particles” (Hovione Scientia Limited, priority 2015, dated 2021).

Assays:
[1] = as disclosed in US 5,504,216 and related patents
[2] = as disclosed in US 5,504,216 and related patents; remark: listed apart in the source

| Physical stability [1] | Bioavailability [2] | Structure (SMILES) |
| --- | --- | --- |
| physically stable | relatively poor bioavailability | COc1cc(C(=O)NS(=O)(=O)c2ccccc2C)ccc1Cc1cn(C)c2ccc(NC(=O)OC3CCCC3)cc12 [crystalline monohydrate form, zafirlukast] |
| physically stable | relatively poor bioavailability | COc1cc(C(=O)NS(=O)(=O)c2ccccc2C)ccc1Cc1cn(C)c2ccc(NC(=O)OC3CCCC3)cc12 [crystalline anhydrous form, zafirlukast] |
| less physically stable | most bioavailable | COc1cc(C(=O)NS(=O)(=O)c2ccccc2C)ccc1Cc1cn(C)c2ccc(NC(=O)OC3CCCC3)cc12 [amorphous form, zafirlukast] |
